Test results: patent US20230040415A1 (PureTech LYT 100, Inc., priority 2020, published 2023)
Like-named read-outs stand apart in the source and are kept apart here.

Assays:
[1] = Multiple ascending dose (MAD) study Part 1, plasma pharmacokinetics
[2] = Repeat dose oral toxicity and toxicokinetics study in Sprague Dawley rats; details: for dose proportionality of AUC0-24 / dose proportionality of Cmax: SD-560 250 to 750 mg/kg, Groups 2 to 4; for exposure in rat relative to human: male rat after 28 days of daily dosing vs human
[3] = Single-dose crossover clinical trial, 801 mg LYT-100 vs pirfenidone, plasma pharmacokinetics; details: for Cmax / % AUC extrap / AUC0-t / AUC(inf) / Kel / t1/2 / tmax: fed, analyte = label; for Cmax / % AUC extrap / AUC0-t / AUC(inf) / Kel / t1/2: mean; for Cmax: n = 24; for tmax: median
[4] = Food effect study Part 2, single 500 mg dose fed vs fasted; type: in vivo, human
Experimental: The comparison will be based on Day 1, Day 2 and Day 3 PK plasma samples after the first dose of study drug on Day 1 under fast and fed conditions of Part 2.
Subjects will be admitted to the CRU on Day −1 and will fast overnight for at least 10 h.

[5] = parameters: AUC, Fasted / AUC, Fed: unit not given beside the values; details: cited from earlier work; for share of recovered drug material in urine excreted as label: humans, oral pirfenidone
[6] = cited from earlier work
[7] = FIG. 23 (Cohort 6, 1000 mg BID)
[8] = LYT-100 100, 250, 500, 750 mg BID cohorts (FIG. 19)
[9] = Day 1, Female, label = Group 4 analyte vs its non-deuterated counterpart
[10] = Treatment = LYT-100, single 801 mg oral dose
[11] = Treatment = LYT-100, single 801 mg
[12] = LYT-100 @500 mg single dose, analyte = label
[13] = LYT-100 @500 mg, 5-CO2 metabolite
[14] = Treatment = Pirfenidone, single 801 mg oral dose
[15] = Treatment = Pirfenidone, single 801 mg

SMILES | average ratio of metabolite to the parent (M/P) by AUC [1, 7] | average ratio of metabolite to the parent (M/P) by AUC [1, 8] | Cmax [3, 10] [ng/mL] | % AUC extrap [3, 11] [%] | AUC0-t [3, 11] [ng·h/mL] | AUC(inf) [3, 11] [ng·h/mL] | Kel [3, 11] [h⁻¹] | t1/2 [3, 11] [h] | tmax [3, 11] [h] | Cmax [3, 14] [ng/mL] | % AUC extrap [3, 15] [%] | AUC0-t [3, 15] [ng·h/mL] | AUC ratio Group 4 (LYT-100 at 750 mg/kg) / Group 5 (SD-559 at 750 mg/kg) [2, 9] | AUC ratio Group 4 (LYT-100 at 750 mg/kg) / Group 5 (SD-559 at 750 mg/kg) ([2]; Day 1, Male) | AUC ratio Group 4 (LYT-100 at 750 mg/kg) / Group 5 (SD-559 at 750 mg/kg) ([2]; Day 28, Female) | dose proportionality of AUC0-24 [2] | dose proportionality of Cmax [2] | AUC ratio Group 4 (LYT-100 at 750 mg/kg) / Group 5 (SD-559 at 750 mg/kg) ([2]; Day 28, Male) | exposure in rat relative to human [2] [fold] | share of recovered drug material in urine excreted as label [5] | also measured
[2H]C([2H])([2H])c1ccc(=O)n(-c2ccc(O)cc2)c1 [LYT-103, d3-4′-hydroxy-pirfenidone] | 0.0037 (0.0030-0.0058) | 0.0017 (0.0012-0.0022) | – | – | – | – | – | – | – | – | – | – | 21.77 | 34.51 | 38.04 | dose proportionally | less than dose proportional | – | – | – | quantifiability of metabolite in human ([3]; after LYT-100): not quantifiable
O=C(O)c1ccc(=O)n(-c2ccccc2)c1 [LYT-105, 5-carboxy-pirfenidone] | 0.56 (0.44-0.66) | 0.45 | 3970 | 1.13 | 23090 | 23350 | 0.262 | 2.91 | 2.50 | 5241 | 0.843 | 26932 | 0.49 | 0.45 | 0.71 | dose proportional | approximately dose proportional | 0.57 | ~7 | > 95% | AUC, % Change Fed vs Fasted [4, 12]: < 5%; Cmax, % Change Fed vs Fasted [4, 12]: < 5%; Tmax, Fasted [4, 13]: 0.75 h; Tmax, Fed [4, 13]: 1 h; plasma exposure relative to exposure to pirfenidone ([5]; Huang, 2013): approximately 50%; average ratio of metabolite to the parent (M/P) by AUC ([1]; LYT-100 100, 250, 500, 750 mg BID cohorts (FIG. 19), listed as SD-789): 0.45 (0.37-0.50); dose dependence of AUC96-108 ([1]; across all dose Cohorts, 100-1000 mg BID): linear dose proportionality; lower Cmax and exposure than SD-789 formed from SD-559 ([2]; SD-560 750 mg/kg vs SD-559 750 mg/kg): approximately 50%; AUC(inf) [3, 15]: 27159 ng·h/mL; Kel [3, 15]: 0.288 h⁻¹; t1/2 [3, 15]: 2.55 h; tmax [3, 15]: 3.00 h; Cmax reduction of 5-carboxy-pirfenidone after LYT-100 relative to pirfenidone ([3]; single 801 mg dose each): 25%
Cc1ccc(=O)n(-c2ccccc2)c1 [Pirfenidone, 5-methyl-1-phenyl-1H-pyridin-2-one] | – | – | – | – | – | – | – | – | – | – | – | – | – | – | – | – | – | – | – | less than 1% | AUC, Fasted ([5]; Pirfenidone @800 mg): 69.7; AUC, Fed ([5]; Pirfenidone @800 mg): 59.3; Tmax, % Change Fed vs Fasted ([5]; Pirfenidone @800 mg): 500%; Tmax, Fasted ([5]; Pirfenidone @800 mg): 0.5 h; diarrhea, frequency ([6]; Lancaster et al. 2017, IPF): ≤ 27.6 per 100PEY; fatigue, frequency ([6]; Lancaster et al. 2017, IPF): ≤ 52.4 per 100PEY; nausea, frequency ([6]; Lancaster et al. 2017, IPF): ≤ 62.1 per 100 PEY; adverse drug reactions leading to permanent treatment discontinuation ([6]; PASSPORT study, Cottin et al. 2018): 28.7%; patients with an adverse event ([6]; compassionate use program, Raghu & Thickett 2013): 44%; patients with ADR leading to discontinuation ([6]; patients aged <65 years): 7.5%; patients with ADR leading to dose modification/interruption ([6]; patients aged <65 years): 18.0%; patients with ADR leading to discontinuation ([6]; patients aged ≥80 years): 20.9%; patients with ADR leading to dose modification/interruption ([6]; patients aged ≥80 years): 32.7%; elevations of AST and ALT to >3× ULN ([6]; phase III trials): 3.2%; reported AEs that were GI-related ([6]; single-center retrospective study of 351 patients): 75%

The next lines start with results.

average ratio of metabolite to the parent (M/P) by AUC [1, 7] | average ratio of metabolite to the parent (M/P) by AUC [1, 8] | Cmax [3, 10] [ng/mL] | % AUC extrap [3, 11] [%] | AUC0-t [3, 11] [ng·h/mL] | AUC(inf) [3, 11] [ng·h/mL] | Kel [3, 11] [h⁻¹] | t1/2 [3, 11] [h] | tmax [3, 11] [h] | Cmax [3, 14] [ng/mL] | % AUC extrap [3, 15] [%] | AUC0-t [3, 15] [ng·h/mL] | SMILES | AUC ratio Group 4 (LYT-100 at 750 mg/kg) / Group 5 (SD-559 at 750 mg/kg) [2, 9] | AUC ratio Group 4 (LYT-100 at 750 mg/kg) / Group 5 (SD-559 at 750 mg/kg) ([2]; Day 1, Male) | AUC ratio Group 4 (LYT-100 at 750 mg/kg) / Group 5 (SD-559 at 750 mg/kg) ([2]; Day 28, Female) | dose proportionality of AUC0-24 [2] | dose proportionality of Cmax [2] | AUC ratio Group 4 (LYT-100 at 750 mg/kg) / Group 5 (SD-559 at 750 mg/kg) ([2]; Day 28, Male) | exposure in rat relative to human [2] [fold] | share of recovered drug material in urine excreted as label [5] | also measured
0.0028 (0.0018-0.0038) | 0.0025 (0.0020-0.0029) | 20.6 | 10.1 | 111 | 124 | 0.294 | 2.76 | 2.50 | – | – | – | [2H]C([2H])(O)c1ccc(=O)n(-c2ccccc2)c1 [LYT-110, 5-(hydroxymethyl-d2)-pirfenidone] | 2.50 | 2.22 | 2.59 | dose proportional | dose proportional | 2.54 | ~1600 | – | exposure and Cmax vs non-deuterated metabolite SD-788 from SD-559 ([2]; 750 mg/kg, all days, both genders): almost twice
– | – | – | – | – | – | – | – | – | 17.1 | 10.3 | 75.8 | O=c1ccc(CO)cn1-c1ccccc1 [LYT-111, 5-hydroxymethyl-pirfenidone] | – | – | – | – | – | – | – | – | AUC(inf) [3, 15]: 89.7 ng·h/mL; Kel [3, 15]: 0.367 h⁻¹; t1/2 [3, 15]: 2.04 h; tmax [3, 15]: 2.50 h; overall systemic exposure (AUC) of metabolite greater after LYT-100 than after pirfenidone ([3]; single 801 mg dose each): approximately 50%
